Assay results from paper PMC6027146, “Synthesis and Structure-Activity Relationships of (−)-cis-N-Normetazocine-Based LP1 Derivatives” (Pharmaceuticals, 2018).

How the values were obtained:
DOR = system: DOR; set-up: method as in PMID 20599386; conditions: less potent than DPDPE; cited from earlier work
recombinant human DOR = target: T1, recombinant human DOR (Homo sapiens, UniProt P41143); assay: Calcium mobilization assay, CHO-DOR cells expressing GαqG66Di5; assay type: cell-based
T1 construct: expressed in transfected cells; supplied by Dr. Eva Varga (University of Arizona); infected with a retrovirus for GαqG66Di5
Experimental: The pharmacological characterization of LP1 derivatives 2 and 10–16 was performed by calcium mobilization assay (Table 2). This procedure was preliminarily validated through a series of experiments where the effects of DPDPE, dermorphin, and dynorphin A were assessed in CHO cells expressing the human recombinant opioid receptors and Gαqi5 or GαqG66Di5 chimeric proteins.
Chinese hamster ovary (CHO) cells expressing the recombinant human MOR and KOR (CHO^MOR and CHO^KOR) were kindly provided by Dr. Larry Toll (SRI International, Menlo Park, CA, USA), and CHO cells expressing the recombinant human DOR (CHO^DOR) were supplied by Dr. Eva Varga (Department of Medical Pharmacology, The University of Arizona, Tucson, AZ, USA). CHO cells lines permanently coexpressing the opioid receptors and the C-terminally modified Gαqi5 were prepared by infecting the CHO lines described above with a recombinant retrovirus expressing the chimeric α subunit and the hygromycin resistance gene. Similarly, CHO cells lines permanently coexpressing DOR and the C-terminally modified GαqG66Di5 were prepared by infecting the CHO lines described above with a recombinant retrovirus expressing the chimeric α subunit and the hygromycin resistance gene. Polyclonal cell lines were generated using the pantropic retroviral expression system form BD-Clontech, as described previously. Stable lines were selected under hygromycin B (100 μg/mL) and geneticin (600 μg/mL) for 2–3 weeks after the infection.
CHO cells, expressing human opioid receptors and the Gαqi5 protein, and CHODOR, expressing the GαqG66Di5 protein, were maintained in culture medium consisting of Dulbecco minimum essential medium (DMEM) and Ham F-12 (1:1) (50/50) supplemented with 10% fetal calf serum (FCS), L-glutamine (2 mM), geneticin (200 μg/mL; G418), hygromycin B (100 μg/mL) at 37 °C in 5% CO2 humidified air. When confluence was reached (3–4 days), cells were subcultured as required using trypsin/EDTA, and used for experimentation. The different cell lines were seeded at a density of […] into black 96-well, clear-bottomed plates. After 24 h incubation, the cells were loaded with medium supplemented with 2.5 mM probenecid, 3 μM of the calcium sensitive fluorescent dye Fluo-4 AM, and 0.01% pluronic acid, for 30 min at 37 °C. Afterwards, the loading solution was aspirated and 100 μL/well of assay buffer—HBSS supplemented with 20 mM HEPES, 2.5 mM probenecid and 500 μM Brilliant Black (Aldrich, St. Louis, MO, USA)—was added. Serial dilutions of ligands for experimental use were made in HBSS/HEPES (20 mM) buffer (containing 0.005% BSA fraction V). After placing both plates (cell culture and compound plate) into the FlexStation II (Molecular Device, Union City, San Jose, CA 94587, USA), fluorescence changes were measured at room temperature. Online additions were carried out in a volume of 50 μL/well. Antagonists were incubated 15 min before the addition of the agonist. Maximum change in fluorescence, expressed in percent of baseline fluorescence, was used to determine agonist response.
Analysis of the binding data was performed using the Origin 7.5 software (OriginLab Corporation, Northampton, MA, USA). In calcium mobilization experiments, data were analyzed by non-linear curve fitting equation, using GraphPad 5.0 software. […] Ligand efficacy was expressed as intrinsic activity (α), calculated as the ratio between the Emax of the ligand and that of the respective standards. Calcium mobilization data were expressed as FIU (fluorescence intensity units) in percent, over the baseline. Agonist potencies are given as pEC50 (the negative logarithm to base 10 of the molar concentration of an agonist that produces 50% of the maximal possible effect, Emax). Concentration response curves to agonists were fitted with the following equation: Effect = baseline + (Emax − baseline)/(1+10^(LogEC50 − X) ∗ HillSlope) where X is the agonist concentration. […]

rat-MOR = target: T2, rat-MOR (Rattus norvegicus, UniProt P33535); assay: Radioligand competition binding, [3H]-DPN, HEK293 membranes, MOR; conditions: [3H]-DPN displacement; means ± SEM of three experiments in duplicate; read-out: Ki (μM) ± SEM MOR
T2 construct: expressed in transfected cells
Experimental: All synthesized compounds were tested in vitro by radioligand competition binding using [^3H]-diprenorphine ([^3H]-DPN) to measure the affinity for opioid receptor subtypes in membranes from HEK293 cells stably expressing either MOR, DOR, or KOR, as previously described.
Confluent monolayers of HEK293 (human embryonic kidney 293) cells stably expressing rat-MOR, rat-DOR, or human-KOR were harvested, collected by centrifugation at 1500 rpm for 5 min, and washed once with phosphate-buffered saline (PBS) at pH 7.5. Membranes from cell pellets were carried out as described by Georgoussi and Zioudrou (1993) and Papakonstantinou et al. (2015). Briefly, cell pellets were resuspended in ice-cold membrane buffer (10 mM Tris-HCl, pH 7.5 and 0.1 mM EDTA), homogenized, and centrifuged at 2,000 g for 3 min at 4 °C. Supernatants were further centrifuged at 45,000 rpm for 30 min at 4 °C. The membrane pellet was resuspended in ice-cold membrane buffer at a protein concentration of approximately 1 mg/mL and stored in aliquots at −70 °C. Protein concentration was determined according to Bradford assay.
In the experiments designed to define compound affinity and selectivity for MOR, DOR, and KOR, membranes expressing each of these opioid receptors ([…]) were incubated at 30 °C for 45 min in buffer containing 50 mM Tris-HCl, pH 7.5, 100 mM NaCl, and 10 mM MgCl2 as described by Georgoussi et al. […] The ability of compounds 10–16 to displace [^3H]-DPN (3.75 nM) binding to the opioid receptors was assessed as described by Morou And Georgoussi (2005). Non-specific binding was measured in the presence of […] Naloxone. The reaction was stopped by rapid filtration and three washes in ice-cold 50 mM Tris-HCl, pH 7.4, through GF/C filters (Whatman, Maidstone, UK) using an automated cell harvester (Brandel Inc., Gaithersburg, MD, USA). The radioactivity was measured by liquid scintillation counting (Liquid Scintillation Analyzer, Packard).
Analysis of the binding data was performed using the Origin 7.5 software (OriginLab Corporation, Northampton, MA, USA). In calcium mobilization experiments, data were analyzed by non-linear curve fitting equation, using GraphPad 5.0 software. […] Ligand efficacy was expressed as intrinsic activity (α), calculated as the ratio between the Emax of the ligand and that of the respective standards. Calcium mobilization data were expressed as FIU (fluorescence intensity units) in percent, over the baseline. Agonist potencies are given as pEC50 (the negative logarithm to base 10 of the molar concentration of an agonist that produces 50% of the maximal possible effect, Emax). Concentration response curves to agonists were fitted with the following equation: Effect = baseline + (Emax − baseline)/(1+10^(LogEC50 − X) ∗ HillSlope) where X is the agonist concentration.

T1 sequence (P41143 whole entry): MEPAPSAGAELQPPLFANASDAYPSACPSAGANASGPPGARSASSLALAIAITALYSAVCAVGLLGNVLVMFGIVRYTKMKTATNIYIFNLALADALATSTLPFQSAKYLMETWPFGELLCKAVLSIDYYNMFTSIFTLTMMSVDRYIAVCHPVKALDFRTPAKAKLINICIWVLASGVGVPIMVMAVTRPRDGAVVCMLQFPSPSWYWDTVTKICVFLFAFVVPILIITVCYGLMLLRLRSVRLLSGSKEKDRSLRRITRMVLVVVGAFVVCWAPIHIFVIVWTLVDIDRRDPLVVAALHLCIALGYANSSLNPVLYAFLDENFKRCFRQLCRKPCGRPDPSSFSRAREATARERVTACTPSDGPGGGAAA
T2 sequence (P33535 whole entry): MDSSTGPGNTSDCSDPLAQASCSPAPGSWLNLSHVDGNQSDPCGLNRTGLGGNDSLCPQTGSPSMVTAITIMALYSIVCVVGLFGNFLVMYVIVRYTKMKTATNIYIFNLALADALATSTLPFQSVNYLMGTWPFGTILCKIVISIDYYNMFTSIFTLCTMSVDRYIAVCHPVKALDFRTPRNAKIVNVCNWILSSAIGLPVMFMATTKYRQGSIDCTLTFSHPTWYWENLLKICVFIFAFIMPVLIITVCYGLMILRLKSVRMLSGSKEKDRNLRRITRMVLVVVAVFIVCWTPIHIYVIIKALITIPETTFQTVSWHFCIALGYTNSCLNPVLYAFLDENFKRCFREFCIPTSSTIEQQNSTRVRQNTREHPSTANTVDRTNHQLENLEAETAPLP

Q: With `C[C@H]1[C@H]2Cc3ccc(O)cc3[C@]1(C)CCN2CCC(=O)Nc1ccccc1` [LP1, 3-[(2R,6R,11R)-8-hydroxy-6,11-dimethyl-1,4,5,6-tetrahydro-2,6-methano-3-benzazocin-3(2H)-yl]-N-phenylpropanamide, reference compound] as the molecule, how does the “potency in inhibiting cAMP accumulation relative to DPDPE (fold less potent)” value (DOR) read?
A: Its value is “approximately 85 fold”.

Q: And the EC50 (recombinant human DOR)?
A: Its EC50 is 1.12 µM.

Q: What about the “functional profile at DOR” value (recombinant human DOR; calcium mobilization) of the same molecule?
A: The value was “partial DOR agonist”.

Q: What about the Ki (rat-MOR) of the same molecule?
A: The Ki was 0.049 ± 0.015 µM.
